Test results from patent US20240239794A1, “PKC-Theta Modulators” (Exscientia AI Limited, priority 2021, published 2024).
Read-outs that look alike come from different tables or passages of the source.

How the values were obtained:
[1] = target: Recombinant human PKC-theta (His-tagged 362-706) (Homo sapiens (Human), UniProt Q04759); test: PKC-theta inhibition assay (HTRF KinEASE kit); type: biochemical; conditions: ATP 6.5 μM; for IC50: binned A to H, read-out: PKC-theta HTRF pIC50 (binned) (converted)
Outline: (§1)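 Ten semi-log compound doses were fitted by 4-parameter logistic to HTRF acceptor/donor ratios for IC50. Reactions at 25° C used 6.5 μM ATP and 525 nM STK substrate for 30 min (PKC-theta) or 5.7 μM ATP and 243 nM substrate for 20 min (PKC-delta), after 30 min on-ice enzyme–compound preincubation at 10 ng/ml enzyme.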

[2] = target: Recombinant human PKC-delta (His-tagged 345-676) (Homo sapiens (Human), UniProt Q05655); test: PKC-delta inhibition assay (HTRF KinEASE kit), PKC-theta/PKC-delta selectivity; type: biochemical; conditions: ratio; for PKC-theta/PKC-delta selectivity: PKC-theta over PKC-delta, HTRF assays; for PKC-theta/PKC-delta selectivity (binned): binned A to G
Outline: as §1

[3] = tested on: IL-2 secretion by human effector memory T cells (TEM); test: Effector memory T cells IL-2 release assay; type: cell-based; conditions: T-cell, human CD4+ TEM cells, CD3/CD28 bead stimulation, 24 h
Outline: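 IC50 values come from a 4-parameter fit of HTRF-measured IL-2 against 10 semi-log doses, relative to maximal IL-2 in each experiment. Donor-derived CD4+ TEM cells were bead-stimulated (anti-CD3/CD28) with compound for 24 h at 37° C; cytotoxicity was excluded by viability dye staining.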

[4] = binned A to G, read-out: PKC-theta IL2 pIC50 (binned) (converted)
[5] = read-out: PKC-theta IL2 pIC50 (converted)

Sequence of Recombinant human PKC-theta (His-tagged 362-706) (Q04759 362-706): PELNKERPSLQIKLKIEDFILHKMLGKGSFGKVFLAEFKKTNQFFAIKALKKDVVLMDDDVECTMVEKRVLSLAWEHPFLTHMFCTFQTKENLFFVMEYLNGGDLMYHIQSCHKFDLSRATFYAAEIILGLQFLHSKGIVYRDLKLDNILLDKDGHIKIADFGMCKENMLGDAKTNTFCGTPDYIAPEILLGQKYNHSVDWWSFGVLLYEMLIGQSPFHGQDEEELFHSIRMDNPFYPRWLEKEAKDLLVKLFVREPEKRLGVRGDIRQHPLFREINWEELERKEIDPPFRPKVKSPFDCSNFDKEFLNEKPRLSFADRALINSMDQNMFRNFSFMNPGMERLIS
Sequence of Recombinant human PKC-delta (His-tagged 345-676) (Q05655 345-676): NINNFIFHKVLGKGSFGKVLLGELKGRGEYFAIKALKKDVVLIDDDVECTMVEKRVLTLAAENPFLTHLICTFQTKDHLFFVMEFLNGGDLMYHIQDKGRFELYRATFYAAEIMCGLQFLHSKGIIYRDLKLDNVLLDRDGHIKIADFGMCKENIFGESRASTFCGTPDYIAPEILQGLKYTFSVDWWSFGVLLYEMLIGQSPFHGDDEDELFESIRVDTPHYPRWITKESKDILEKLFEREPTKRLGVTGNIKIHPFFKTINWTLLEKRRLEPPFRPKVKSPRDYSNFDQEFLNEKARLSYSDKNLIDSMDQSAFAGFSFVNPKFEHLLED

Compound	PKC-theta HTRF pIC50 [1]	IC50 [1] [nM]	PKC-theta/PKC-delta selectivity [2]	PKC-theta/PKC-delta selectivity (binned) [2]	IC50 [3, 4] [nM]	IC50 [3, 5] [nM]
CC1(O)C(=O)Nc2nccc(-c3cn([C@H]4CCNC4)c4ccccc34)c21 (stereo partly drawn) [Example 18]	7.9	10 to 31.6	11	D (D means a ratio of between 10 and 20)	316 to 1000	316
CC1(C)C(=O)Nc2nccc(-c3nn([C@@H]4CCCNC4)c4ccccc34)c21 [Example 19]	8.4	3.16 to 10	9	E (E means a ratio of between 5 and 10)	31.6 to 100	50.1
CC1(C)C(=O)Nc2nccc(-c3nn([C@H]4CCCNC4)c4ccccc34)c21 [Example 20]	7.8	10 to 31.6	13	D (D means a ratio of between 10 and 20)	100 to 316	200
CC1(C)C(=O)Nc2nccc(-c3cn(C4(CC#N)CCC4)c4ccccc34)c21 [Example 21, 2-[1-[3-(3,3-dimethyl-2-oxo-1H-pyrrolo[2,3-b]pyridin-4-yl)indol-1-yl]cyclobutyl]acetonitrile]	7.3	31.6 to 100	9	E (E means a ratio of between 5 and 10)	> 1000	1000
CC1(C)C(=O)Nc2nccc(-c3nn(C4(CC#N)CCC4)c4ccccc34)c21 [Example 22]	8.0	3.16 to 10	15	D (D means a ratio of between 10 and 20)	316 to 1000	316
CC1(C)C(=O)Nc2nccc(-c3nn(C4(CO)CCNC4)c4ccccc34)c21 (stereo not drawn) [Example 23]	9.3	≤ 1	11	D (D means a ratio of between 10 and 20)	10 to 31.6	31.6
CC1(O)C(=O)Nc2nccc(-c3cn(C4(CC#N)CCC4)c4ccccc34)c21 (stereo not drawn) [Example 24]	8.4	3.16 to 10	9	E (E means a ratio of between 5 and 10)	31.6 to 100	63.1
CC1(O)C(=O)Nc2nccc(-c3nn(C4(CC#N)CCC4)c4ccccc34)c21 (stereo not drawn) [Example 25, 2-[1-[3-(3-hydroxy-3-methyl-2-oxo-1H-pyrrolo[2,3-b]pyridin-4-yl)indazol-1-yl]cyclobutyl]acetonitrile]	9.3	≤ 1	6	E (E means a ratio of between 5 and 10)	10 to 31.6	20
CC1(O)C(=O)Nc2nccc(-c3nn(C4CCNCC4)c4ccccc34)c21 (stereo not drawn) [Example 26]	8.5	3.16 to 10	11	D (D means a ratio of between 10 and 20)	31.6 to 100	79.4
CC1(C)C(=O)Nc2nccc(-c3nn(CC4CCNCC4)c4ccccc34)c21 [Example 30]	8.9	1 to 3.16	14	D (D means a ratio of between 10 and 20)	31.6 to 100	50.1
CC1(C)C(=O)Nc2nccc(-c3nn(C4CCNCC4)c4c(F)cccc34)c21 [Example 32]	8.1	3.16 to 10	13	D (D means a ratio of between 10 and 20)	100 to 316	100
CC1(O)C(=O)Nc2nccc(-c3nn([C@@H]4CCNC[C@@H]4F)c4ccccc34)c21 (stereo partly drawn) [Example 34]	8.8	1 to 3.16	12	D (D means a ratio of between 10 and 20)	31.6 to 100	39.8
CC1(O)C(=O)Nc2nccc(-c3nn([C@H]4CCNC[C@@H]4F)c4ccccc34)c21 (stereo partly drawn) [Example 35]	8.5	3.16 to 10	11	D (D means a ratio of between 10 and 20)	31.6 to 100	100
